Data published in patent publication US20060079453A1, “Hla binding peptides and their uses” (priority 2002, published 2006).
Where two headings read alike, the source gives them in different places. No end group written: not given here.

Key:
Assay in all cases: biochemical
Format in all cases: binding
[1] = target: HLA-DR DRB1*0401 (DR4) (Homo sapiens, UniProt P01903+P01911, A100K/A169T/F76Y/I96L/K127E/L162R/M171V/N62H/P40V/Q125Y/R42H/S133A/S149N/S66Y/V115G/V209L/W38E)
[2] = target: HLA-DR DRB1*0405 (DR4) (Homo sapiens, UniProt P01903+P01911, A100R/A169T/D86S/F76Y/I96L/K127E/L162R/M171V/N62H/P40V/Q125Y/R42H/S133A/S149N/S66Y/V115G/V209L/W38E)
[3] = target: HLA-DR DRB1*0701 (DR7) (Homo sapiens, UniProt P01903+P01911, A100R/A102G/A103Q/D57E/D86V/E43K/F76Y/K127E/L162R/M171V/P40G/Q125H/Q99D/R33Q/R42Y/R54Q/S133A/S66F/T210M/V115G/Y107V/Y59L/Y89S)
[4] = target: HLA-DR DRB1*0301 (DR3) (Homo sapiens, UniProt P01903+P01911, A100K/A102G/A103R/A169T/F55Y/I96L/K41T/L162R/M171V/P40S/Q125H/Q178H/Q39Y/R42S/S66N/T106N/T262R/W38E/Y61H)
[5] = target: HLA-DR DRB1*0901 (DR9) (Homo sapiens, UniProt P01903+P01911, A100R/A103E/D57H/D86V/F55Y/F60I/F76Y/I96F/K127E/L162R/M171V/P40D/Q125H/Q99R/R33Q/R42F/S133A/S66N/T210M/V115G/W38K/Y107V/Y59G/Y89S)
[6] = target: HLA-DR DRB1*0802 (DR8) (Homo sapiens, UniProt P01903+P01911, A100R/A103L/A169T/F76Y/H45Y/I96F/K41T/L162R/M171V/P40S/Q125H/Q178H/Q39Y/Q99D/R218S/R42G/S66Y/V115G/W38E)
[7] = target: HLA-DR DRB5*0101 (DR51) (Homo sapiens, UniProt P01903+Q30154); conditions: DRB5 *0101
[8] = target: HLA-DR DRB1*1302 (DR13) (Homo sapiens, UniProt P01903+P01911, A100E/A169T/K41T/L162R/M171V/P40S/Q125H/Q178H/Q39Y/Q99D/R42S/S66N/T262R/V115G/W38E/Y61H)
[9] = target: HLA-DR DRB1*1501 (DR15) (Homo sapiens, UniProt P01903+P01911); conditions: DRBI *1501
[10] = target: HLA-DR DRB1*0101 (DR1) (Homo sapiens, UniProt P01903+P01911, A100R/D57E/F55L/F60I/F76Y/I96L/L162R/M171V/P40L/Q125E/R42F/V115G/Y59C)
[11] = target: HLA-DR DRB4*0101 (DR53) (Homo sapiens, UniProt P01903+P13762, G164S); conditions: DRB4 *0101
[12] = target: HLA-DR DRB1*1101 (DR11) (Homo sapiens, UniProt P01903+P01911, A100R/A169T/A87E/I96F/K41T/L162R/M171V/P40S/Q125H/Q178H/Q39Y/Q99D/R42S/S66Y/T262R/V115G/W38E)
Chain of HLA-DR DRB1*1101 (DR11) (P01903 26-254 limits assumed, other chains not shown): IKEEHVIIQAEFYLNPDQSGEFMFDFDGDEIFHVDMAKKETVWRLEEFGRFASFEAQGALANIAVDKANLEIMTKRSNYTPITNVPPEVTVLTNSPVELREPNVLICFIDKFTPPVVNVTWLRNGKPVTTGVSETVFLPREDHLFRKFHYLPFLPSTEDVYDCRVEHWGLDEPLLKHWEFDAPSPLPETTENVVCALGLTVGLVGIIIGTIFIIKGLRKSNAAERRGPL

Chain of HLA-DR DRB1*0301 (DR3) (P01903 26-254 limits assumed, other chains not shown): as above
Chain of HLA-DR DRB1*1302 (DR13) (P01903 26-254 limits assumed, other chains not shown): as above

Sequence | IC50 ([1]; read-out: DRB1 *0401) [µM] | IC50 ([2]; read-out: DRB1 *0405) [µM] | IC50 ([3]; read-out: DRB1 *0701) [µM] | IC50 ([4]; read-out: DRB1 *0301) [µM] | IC50 ([5]; read-out: DRB1 *0901) [µM] | IC50 ([6]; read-out: DRB1 *0802) [µM] | IC50 ([1]; DRB1 *0401) [µM] | IC50 ([2]; DRB1 *0405) [µM] | IC50 ([3]; DRB1 *0701) [µM] | IC50 ([5]; DRB1 *0901) [µM] | IC50 ([8]; DRBI *1302) [µM] | IC50 [9] [µM] | IC50 [6] [µM] | IC50 [4] [µM] | also measured
CCTSICSLYQLENY | 8.38 | 0.629 | 35.6 | 71.2 | 29.8 | > 54.4 | – | – | – | – | – | – | – | – | –
DFSYLQDSDPDSFQD | – | – | – | – | – | – | 0.264 | > 127 | > 250 | > 107 | > 35 | > 91 | > 61.2 | – | IC50 [7]: > 40 µM
FLRIVQTRSVEGSTGF | – | – | – | – | – | – | 0.011 | 0.099 | 0.0098 | 0.778 | 0.0015 | 0.0098 | 0.445 | 3.94 | IC50 ([10]; DRB1 *0101): 0.0064 µM
FPDWQNYTPGPGTRF | – | – | – | – | – | – | 23.4 | > 10.1 | 59.6 | 3.01 | > 12 | 35.1 | 0.592 | > 224 | IC50 [7]: > 20.5 µM; IC50 [11]: 33.9 µM; IC50 ([12]; DRB1 *1101): > 51.3 µM
QLCFLKKGLGISYGR | – | – | – | – | – | – | – | – | – | – | – | – | 0.04 | 158 | IC50 [1]: 4.44 µM; IC50 [2]: 0.443 µM; IC50 [3]: 3.63 µM; IC50 [5]: 0.2 µM; IC50 [12]: 0.0095 µM; IC50 [8]: 0.088 µM
TLERPKTLSPQKNGV | > 22.5 | > 28.6 | 26 | 134 | > 300 | > 75.4 | – | – | – | – | – | – | – | – | –
VASLLTTAEVVVTE | 7.43 | 6.52 | 0.369 | 136 | 1.96 | > 118 | – | – | – | – | – | – | – | – | –
VNFYAWKRMEVGQQA | – | – | – | – | – | – | 0.01 | 0.015 | 40.2 | 1.24 | 14.8 | – | 0.035 | 2.87 | IC50 [11]: 1.49 µM; IC50 ([10]; DRB1 *0101): 0.193 µM; IC50 ([12]; DRB1 *1101): 0.05 µM
VRVEILRYFYVINRL | 0.14 | 0.018 | 0.014 | – | 0.485 | 3.58 | – | – | – | – | – | – | – | – | IC50 ([10]; read-out: DRB1 *0101): 0.0018 µM
YLVTGERGFFYTKYT | > 20.5 | > 30.1 | 0.078 | 4.8 | 195 | 4.3 | – | – | – | – | – | – | – | – | IC50 ([10]; read-out: DRB1 *0101): 1.15 µM
